# Values of other authors in patent publication US20060029543A1, “Treatment of B-cell lymphoma” (priority 2004, published 2006).
# Conditions: received more than 200 milligrams per meter squared of doxorubicin
structure (smiles),measurement,value
COc1cccc2c1C(=O)c1c(O)c3c(c(O)c1C2=O)C[C@@](O)(C(=O)CO)C[C@@H]3O[C@H]1C[C@H](N)[C@H](O)[C@H](C)O1 [doxorubicin],"Left ventricular dysfunction, long-term survivors affected",8 of 57
